Test results: ChEMBL document CHEMBL1201862, “PubChem BioAssay data set” (2004)
Structures can show the parent of a compound that is named as a salt. Activity calls are given as the source filed them. For most assays here, no stated cut-off is given here; in the data, actives have a measured EC50 and inactives only a lower limit.

How the values were obtained:
[1] = molecular target: Luciferin 4-monooxygenase (Photinus pyralis, UniProt P08659); assay: inhibition of purified Photinus pyralis luciferase – biochemical, luminescence, dose response (AID 1891)
[2] = Luminescence Cell-Based Dose Confirmation HTS to Identify Inhibitors of Platelet Dense Granule Release. [Related pubchem assays: 1663 (Primary HTS), 1678 (Summary of Project)]; format: functional
[3] = microbe, parasite or virus in culture; format: functional; conditions: Mycobacterium tuberculosis
[4] = molecular target: T1, Heat shock factor protein 1 (Mus musculus, UniProt P38532); assay: enhancement of HSF1-driven luciferase signal – cell-based, NIH3T3, luminescence, dose retest, confirmation (AID 435004); format: functional;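 further: stress induced by proteasome inhibitor MG132 added 30 min after compound; luciferase reporter driven by HSF1 response element in NIH3T3 cells; actives raise luminescence as potentiators of the MG132 stress response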
T1 sequence (P38532 whole entry): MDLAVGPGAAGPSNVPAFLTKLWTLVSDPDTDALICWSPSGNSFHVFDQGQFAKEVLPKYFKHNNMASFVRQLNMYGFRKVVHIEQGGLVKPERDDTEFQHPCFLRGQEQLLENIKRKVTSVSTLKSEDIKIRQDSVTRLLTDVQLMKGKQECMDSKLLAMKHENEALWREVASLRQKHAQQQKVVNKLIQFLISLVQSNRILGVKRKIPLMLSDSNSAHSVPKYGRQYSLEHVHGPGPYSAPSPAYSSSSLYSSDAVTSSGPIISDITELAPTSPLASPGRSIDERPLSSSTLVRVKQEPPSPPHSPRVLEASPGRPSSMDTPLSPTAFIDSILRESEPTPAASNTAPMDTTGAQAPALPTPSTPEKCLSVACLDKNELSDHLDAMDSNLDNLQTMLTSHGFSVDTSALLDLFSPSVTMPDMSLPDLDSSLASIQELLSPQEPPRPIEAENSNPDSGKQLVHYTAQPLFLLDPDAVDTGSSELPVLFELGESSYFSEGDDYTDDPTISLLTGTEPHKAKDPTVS

[5] = molecular target: T2, RNA-binding protein pos-1 (Caenorhabditis elegans, UniProt G5EF15); assay: disruptors of C. elegans POS-1 RNA interaction – biochemical, fluorescence polarization, dose response (AID 1964);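 further: purified POS-1 fused to maltose binding protein made in E. coli; potency of compounds blocking POS-1 binding to fluorescent RNA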
T2 sequence (G5EF15 whole entry): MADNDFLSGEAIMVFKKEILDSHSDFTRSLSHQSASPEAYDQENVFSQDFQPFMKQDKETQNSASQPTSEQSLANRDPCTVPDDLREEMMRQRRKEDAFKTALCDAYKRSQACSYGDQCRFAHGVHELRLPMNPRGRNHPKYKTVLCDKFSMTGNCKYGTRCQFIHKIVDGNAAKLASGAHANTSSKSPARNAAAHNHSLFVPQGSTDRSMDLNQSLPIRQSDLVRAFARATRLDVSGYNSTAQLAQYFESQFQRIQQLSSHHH

[6] = molecular target: T3, Corticotropin-releasing factor receptor 2/Corticotropin-releasing factor-binding protein (Homo sapiens, UniProt P24387+Q13324); assay: activators of CRF receptor 2 with binding protein – uHTS hits, confirmation (AID 602473); format: functional; conditions: read-out: EC50_Mean
T3 sequence (Q13324 whole entry): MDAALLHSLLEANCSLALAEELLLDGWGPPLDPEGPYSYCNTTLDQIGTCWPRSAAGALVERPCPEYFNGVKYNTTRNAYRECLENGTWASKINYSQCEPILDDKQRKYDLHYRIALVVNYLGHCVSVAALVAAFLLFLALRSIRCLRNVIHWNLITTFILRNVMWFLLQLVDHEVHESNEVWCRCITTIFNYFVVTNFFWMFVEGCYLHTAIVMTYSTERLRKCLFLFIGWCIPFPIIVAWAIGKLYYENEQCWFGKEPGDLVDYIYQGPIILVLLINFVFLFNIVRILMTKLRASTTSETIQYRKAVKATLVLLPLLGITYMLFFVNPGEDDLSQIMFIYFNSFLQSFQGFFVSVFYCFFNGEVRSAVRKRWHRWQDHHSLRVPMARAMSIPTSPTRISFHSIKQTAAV
T3 sequence (P24387 whole entry): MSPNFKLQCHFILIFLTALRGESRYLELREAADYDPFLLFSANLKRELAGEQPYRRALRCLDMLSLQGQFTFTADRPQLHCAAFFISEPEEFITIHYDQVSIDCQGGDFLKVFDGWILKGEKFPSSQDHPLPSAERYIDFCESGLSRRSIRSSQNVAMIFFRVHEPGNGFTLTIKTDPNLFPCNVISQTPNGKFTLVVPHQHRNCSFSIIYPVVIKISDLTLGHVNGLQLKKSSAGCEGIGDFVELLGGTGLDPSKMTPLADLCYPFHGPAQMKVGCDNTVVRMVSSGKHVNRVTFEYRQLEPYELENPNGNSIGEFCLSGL

[7] = luciferase reporter signal suppression in cells – H4 neuroglioma cells, luminescence, dose response (AID 1990); format: functional, cell-based
[8] = Luminescence Cell-Based Dose Response HTS to Identify Inhibitors of 5'UTR Stem-Loop Driven Prion Protein mRNA Translation in H4 Neuroglioblastoma Cells. [Related pubchem assays: 1827 (Project Summary), 1813 (Primary HTS)]; format: functional
[9] = alpha-synuclein stem-loop luciferase translation blockers – H4 neuroglioma cells, luminescence, confirmation (AID 1988); format: functional, cell-based
[10] = viability of PTEN-deleted HCT116 cells – cell-based, HCT116 PTEN knockout, dose response (AID 1047); format: functional;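 further: HCT116 colon tumor cells with PTEN knocked out; cells exposed to compound for 60 hours before readout; potency for loss of cell viability measured by luminescence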
[11] = viability of HCT116 lacking mutant beta-catenin – cell-based, human colon tumor, dose response (AID 1045); format: functional;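 further: HCT116 colon tumor cells with beta catenin knocked out; cells exposed to compound for 60 hours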
[12] = Luminescence Cell-Based Dose Retest to Confirm Inhibitors of Cancer Stem Cells. [Related pubchem assays (depositor defined):AID2717, AID2721]; format: functional; conditions: Homo sapiens
[13] = viability of uninfected HEp-2 cells – cell-based, HTS, cytotoxicity control for RSV inhibitor project, dose response (AID 2410); format: functional; conditions: human respiratory syncytial virus
[14] = system: Streptococcus sp. 'group A'; assay: Streptococcus pyogenes SK(-)GAS viability under kanamycin – luminescence, BacTiterGlo, confirmation, counter-screen for streptokinase expression inhibitor project, dose response (AID 1900); format: functional, organism-based
Streptococcus = assay: GAS UMAA2166 growth inhibition – luminescence, BacTiterGlo, counter-screen for streptokinase expression inhibitor project, dose response (AID 1915); format: functional, organism-based;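 further: potency for reduction of bacterial viability or growth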
INS1 = assay: INS-1E survival protection against cytokine death – cell-based, luminescence, retest, dose response (AID 449756); format: functional; conditions: Rattus norvegicus;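 further: cell death triggered by IL-1 beta plus TNF-alpha plus IFN-gamma mixture; protective hits raise ATP signal compared with cytokine alone wells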
cells = format: functional
[15] = Luminescence Cell-Based Dose Confirmation HTS to Identify Activators of 5'UTR Stem-Loop Driven Alpha-Synuclein mRNA Translation in H4 Neuroglioblastoma Cells. [Related pubchem assays: 1829 (Project Summary), 1814 (Primary HTS)]; format: functional
[16] = Luminescence Cell-Based Dose Response HTS to Identify Activators of Luciferase Translation or Activity in H4 […] Cells. [Related pubchem assays: 1829 (Project Summary), 1814 (Primary HTS)]; format: functional
H4 = assay: Luminescence Cell-Based Dose Response HTS to Identify Activators of 5'UTR Stem-Loop Driven Prion Protein mRNA Translation in H4 Neuroglioblastoma Cells. [Related pubchem assays: 1829 (Project Summary), 1814 (Primary HTS)]; format: functional; conditions: Homo sapiens

Chain of Luciferin 4-monooxygenase (P08659 whole entry): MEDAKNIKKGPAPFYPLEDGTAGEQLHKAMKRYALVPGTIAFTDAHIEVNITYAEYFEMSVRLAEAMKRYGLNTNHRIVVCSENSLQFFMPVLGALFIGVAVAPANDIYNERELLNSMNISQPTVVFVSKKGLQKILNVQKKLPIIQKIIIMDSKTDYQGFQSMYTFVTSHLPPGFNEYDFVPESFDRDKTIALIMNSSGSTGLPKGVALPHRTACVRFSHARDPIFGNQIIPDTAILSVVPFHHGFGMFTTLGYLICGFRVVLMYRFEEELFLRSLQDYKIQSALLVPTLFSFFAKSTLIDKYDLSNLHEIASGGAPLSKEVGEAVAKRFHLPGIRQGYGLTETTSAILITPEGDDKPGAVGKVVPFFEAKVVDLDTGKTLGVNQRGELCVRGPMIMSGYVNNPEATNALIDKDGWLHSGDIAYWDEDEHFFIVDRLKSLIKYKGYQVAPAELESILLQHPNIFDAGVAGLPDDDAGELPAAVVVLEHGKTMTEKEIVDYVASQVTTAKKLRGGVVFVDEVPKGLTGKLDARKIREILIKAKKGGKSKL

O=C(CCNC(=O)C1CCN(S(=O)(=O)c2ccc(F)cc2)CC1)NCc1ccc(Cl)cc1
EC50 [1]: > 112 µM (not active)
EC50 [2]: > 112 µM (not active)

CCC(=O)Oc1ccc(C(=O)Nc2ccc3c(c2)C(=O)N(C2CCCCC2)C3=O)cc1
CC50 [3]: 39.9 µM (active)

Nc1nnc(SCc2c(F)cccc2Cl)s1
EC50 [4]: > 260 µM (inactive)

COc1cc(S(=O)(=O)Nc2ccc(C)cc2)ccc1N/C=C1\C(=O)N(C)C(=O)C(C#N)=C1C
EC50 [5]: 2.83 µM (active)
EC50 [6]: > 53 µM (inactive)

CCOc1ccc(NC(=O)C(=O)NCCN2CCN(C(=O)c3ccc(C)cc3)CC2)cc1
EC50 [7]: 14.7 µM (active)
EC50 [8]: 64.8 µM (active)
EC50 [9]: 63.7 µM (active)

COc1cc2[nH]c(=O)n(CCCCCC(=O)N3CC=C(c4ccccc4)CC3)c(=O)c2cc1OC
EC50 [10]: 21.9 µM (active)
EC50 [11]: 27.9 µM (active)

CCO[C@H]1OC(C(=O)NCc2nc3ccccc3[nH]2)=C[C@@H](c2csc3ccccc23)[C@@H]1CCCO
CC50 [3]: > 40 µM (active)

COc1ccc(C2NC(=O)CCC2[N+](=O)[O-])c(OC)c1 (stereo not given)
EC50 [4]: > 260 µM (inactive)

CCc1cc2c(=O)c(-c3cnn(-c4ccccc4)c3)c(C)oc2cc1OCC(=O)Nc1ccc(F)c(F)c1
EC50 [10]: 4.93 µM (active)
EC50 [11]: 4.88 µM (active)

C=CCN(C(=O)CCC(=O)O)C1CC(=O)N(c2ccc(OC)cc2)C1=O (stereo not given)
EC50 [1]: > 112 µM (not active)
EC50 [2]: > 112 µM (not active)

O=S(=O)(NCCc1cn2ccccc2n1)c1ccc2c(c1)CCCC2
EC50 [1]: > 112 µM (not active)
EC50 [2]: > 112 µM (not active)

CN(Cc1ccco1)c1ncnc2ccc(-c3ccc4c(ccn4C)c3)cc12
CC50 [3]: 15.4 µM (active)
AC50 [12]: 0.499 µM (active)

CCOc1ccccc1C(=O)Nc1cnc(O)nc1O
CC50 [13]: > 50 µM (active)
EC50 [8]: > 120 µM (not active)
EC50 [9]: > 120 µM (not active)
EC50 [1]: > 112 µM (not active)
EC50 [2]: 0.125 µM (active)

Cc1cc(/C=C2\C(=O)NC(=O)N(c3ccc(Br)cc3)C2=O)c(C)n1C
EC50 [5]: 59.7 µM (active)

O=C(Nn1cnnc1)c1ccccc1CCc1ccccc1
EC50 [1]: > 112 µM (not active)
EC50 [2]: > 112 µM (not active)

COC(=O)CC1C(=O)NCCN1C(=O)c1ccc(S(=O)(=O)N2CCOCC2)cc1 (stereo not given)
EC50 [4]: > 260 µM (inactive)

Cc1c(N=N/C(C#N)=C(\O)c2ccc(Cl)cc2)c(=O)n(-c2ccccc2)n1C
EC50 [7]: 9.5 µM (active)
EC50 [14]: 0.528 µM (active)
EC50 [8]: 9.48 µM (active)
EC50 [9]: 8.7 µM (active)
EC50 (Streptococcus): 9.3 µM (active)
AC50 (INS1): 2.08 µM (active)

Nc1ccc2cc(Br)ccc2c1
IC50 (cells): 25.7 µM (active)

CCn1nnc(NC(=O)c2ccc(-c3ccc(Cl)cc3)o2)n1
IC50 (cells): > 50 µM (active)

CC(C)(C)OC(=O)NCCCCCc1nnc(SCc2ccc(F)cc2)o1
CC50 [3]: > 40 µM (active)

CCC(=O)NCCc1nc2ccccc2n1Cc1ccccc1
EC50 [1]: > 112 µM (not active)
EC50 [2]: > 112 µM (not active)

Nc1cccc(-c2nc3ccccc3s2)c1
EC50 [1]: 3.81 µM (active)
EC50 [2]: 7.77 µM (active)

Cc1ccccc1-n1c(=O)cc(N2CCN(C(=O)c3ccco3)CC2)[nH]c1=O
EC50 [1]: > 112 µM (not active)
EC50 [2]: > 112 µM (not active)

CSC1=NC(/C=C/c2ccc(Cl)cc2)=CC(C)(C)N1
EC50 [15]: 14.3 µM (active)
EC50 [16]: > 120 µM (not active)
EC50 (H4): > 120 µM (not active)
CC50 [3]: 11.1 µM (active)

O=C(O)c1cccc(S(=O)(=O)N2CCC(n3nnc4cc(C(F)(F)F)ccc43)CC2)c1
EC50 [4]: > 260 µM (inactive)

CC(C)Cc1cc(C(=O)Nc2ccc(F)cc2F)no1
IC50 (cells): 12 µM (active)

COc1cccc(-n2c(N)c(C(=O)Nc3c(C)n(C)n(-c4ccccc4)c3=O)c3nc4ccccc4nc32)c1
EC50 [1]: > 112 µM (not active)
EC50 [2]: > 112 µM (not active)

CCc1cc(C(c2ccccc2OC)N2CCOCC2)c(NC(=O)c2ccccc2)s1 (stereo not given)
EC50 [4]: 7.34 µM (active)

Cc1cc2oc(=O)cc(CSc3nc(N)cc(N)n3)c2cc1C
EC50 [4]: > 260 µM (inactive)

COc1ccc(C(=O)C2CCCN(Cc3ccc(C)s3)C2)c(OC)c1 (stereo not given)
EC50 [4]: > 260 µM (inactive)

NC(=O)COc1ccccc1
EC50 [4]: > 260 µM (inactive)

O=C(N/N=C/C=C/c1cccc([N+](=O)[O-])c1)c1ccncc1
IC50 (cells): 34.9 µM (active)

COc1cc(SC#N)ccc1/N=C/c1c(C)[nH]n(-c2ccc(C)c(C)c2)c1=O
EC50 [10]: 8.81 µM (active)
EC50 [11]: 8.18 µM (active)
AC50 [12]: 1.41 µM (active)
AC50 (INS1): 4.24 µM (active)

CC(/C=C/c1cccc([N+](=O)[O-])c1)=N\NC(=O)c1ccncc1
IC50 (cells): 0.94 µM (active)

CN(C)CCCN1c2ccccc2CCc2ccc(Cl)cc21 [CLOMIPRAMINE HYDROCHLORIDE]
EC50 [10]: 9.89 µM (active)
EC50 [11]: 10.3 µM (active)
